From ChEMBL document CHEMBL1201862, “PubChem BioAssay data set” (2004)
Counter-ions that a name gives are not always drawn. Calls of active or inactive are those of the source.

Key:
[1] = target: DNA (cytosine-5)-methyltransferase 1 (Homo sapiens, UniProt P26358); experiment: DNMT1 methyltransferase inhibitors, confirmation, biochemical, fluorescent molecular beacon (AID 602386); format: functional
[2] = target: T1, Probable nicotinate-nucleotide adenylyltransferase (Staphylococcus aureus (strain N315), UniProt P65502); format: functional, Staphylococcus aureus subsp. aureus N315;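 for IC50 Mean: confirmatory dose-response retesting of NadD inhibitor hits first found in an ultra-high-throughput screen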
T1 sequence (P65502 whole entry): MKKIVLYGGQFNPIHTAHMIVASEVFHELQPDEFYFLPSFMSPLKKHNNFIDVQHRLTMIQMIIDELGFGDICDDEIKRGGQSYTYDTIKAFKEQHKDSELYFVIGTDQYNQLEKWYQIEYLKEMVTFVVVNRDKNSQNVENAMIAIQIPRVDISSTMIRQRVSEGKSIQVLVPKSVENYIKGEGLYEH

[3] = target: T1, Probable nicotinate-nucleotide adenylyltransferase; format: functional, Staphylococcus aureus subsp. aureus N315; conditions: read-out: IC50_Mean
Cysteine protease ATG4B = target: T2, Cysteine protease ATG4B (Homo sapiens, UniProt Q9Y4P1); format: functional;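 note: Fluorescence-based dose-response confirmation assay measuring inhibition of ATG4B activity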
T2 sequence (Q9Y4P1 whole entry): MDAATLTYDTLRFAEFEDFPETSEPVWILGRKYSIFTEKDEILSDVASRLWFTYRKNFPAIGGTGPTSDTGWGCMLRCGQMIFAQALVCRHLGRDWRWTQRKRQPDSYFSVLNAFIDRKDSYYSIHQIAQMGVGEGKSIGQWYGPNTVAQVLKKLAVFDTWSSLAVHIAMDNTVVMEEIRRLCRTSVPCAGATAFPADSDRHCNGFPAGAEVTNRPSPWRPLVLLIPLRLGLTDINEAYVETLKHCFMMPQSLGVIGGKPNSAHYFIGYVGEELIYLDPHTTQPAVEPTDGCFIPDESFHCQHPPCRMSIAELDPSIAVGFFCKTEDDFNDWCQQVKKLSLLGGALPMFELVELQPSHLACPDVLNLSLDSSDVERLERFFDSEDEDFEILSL

Phospholipase A2 = Phospholipase A2 (Homo sapiens, UniProt P04054); format: functional;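 note: confirmatory dose-response counterscreen on phospholipase A2, testing hits that came from an ultra-high-throughput screen for ATG4B inhibitors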
Chain of Phospholipase A2 (P04054 whole entry): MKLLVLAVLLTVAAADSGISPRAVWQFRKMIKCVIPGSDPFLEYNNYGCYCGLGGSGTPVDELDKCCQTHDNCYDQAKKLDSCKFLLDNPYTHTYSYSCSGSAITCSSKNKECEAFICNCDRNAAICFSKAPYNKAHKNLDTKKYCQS

HeLa = experiment: HeLa cell cytotoxicity, dose response, cytotoxicity control for MITF activator project, CellTiter-Glo luminescence, cherry-pick samples (AID 540259); format: functional, cell-based; conditions: Homo sapiens
Vero [4] = experiment: cells; format: functional, cell-based; conditions: Chlorocebus sabaeus
Vero [5] = experiment: cells; format: functional; conditions: Chlorocebus sabaeus
[6] = target: Voltage-gated inwardly rectifying potassium channel KCNH2 (Homo sapiens, UniProt Q12809); conditions: Potency;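 note: confirmatory quantitative high-throughput screen measuring inhibition of hERG channel activity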
Chain of Voltage-gated inwardly rectifying potassium channel KCNH2 (Q12809 whole entry): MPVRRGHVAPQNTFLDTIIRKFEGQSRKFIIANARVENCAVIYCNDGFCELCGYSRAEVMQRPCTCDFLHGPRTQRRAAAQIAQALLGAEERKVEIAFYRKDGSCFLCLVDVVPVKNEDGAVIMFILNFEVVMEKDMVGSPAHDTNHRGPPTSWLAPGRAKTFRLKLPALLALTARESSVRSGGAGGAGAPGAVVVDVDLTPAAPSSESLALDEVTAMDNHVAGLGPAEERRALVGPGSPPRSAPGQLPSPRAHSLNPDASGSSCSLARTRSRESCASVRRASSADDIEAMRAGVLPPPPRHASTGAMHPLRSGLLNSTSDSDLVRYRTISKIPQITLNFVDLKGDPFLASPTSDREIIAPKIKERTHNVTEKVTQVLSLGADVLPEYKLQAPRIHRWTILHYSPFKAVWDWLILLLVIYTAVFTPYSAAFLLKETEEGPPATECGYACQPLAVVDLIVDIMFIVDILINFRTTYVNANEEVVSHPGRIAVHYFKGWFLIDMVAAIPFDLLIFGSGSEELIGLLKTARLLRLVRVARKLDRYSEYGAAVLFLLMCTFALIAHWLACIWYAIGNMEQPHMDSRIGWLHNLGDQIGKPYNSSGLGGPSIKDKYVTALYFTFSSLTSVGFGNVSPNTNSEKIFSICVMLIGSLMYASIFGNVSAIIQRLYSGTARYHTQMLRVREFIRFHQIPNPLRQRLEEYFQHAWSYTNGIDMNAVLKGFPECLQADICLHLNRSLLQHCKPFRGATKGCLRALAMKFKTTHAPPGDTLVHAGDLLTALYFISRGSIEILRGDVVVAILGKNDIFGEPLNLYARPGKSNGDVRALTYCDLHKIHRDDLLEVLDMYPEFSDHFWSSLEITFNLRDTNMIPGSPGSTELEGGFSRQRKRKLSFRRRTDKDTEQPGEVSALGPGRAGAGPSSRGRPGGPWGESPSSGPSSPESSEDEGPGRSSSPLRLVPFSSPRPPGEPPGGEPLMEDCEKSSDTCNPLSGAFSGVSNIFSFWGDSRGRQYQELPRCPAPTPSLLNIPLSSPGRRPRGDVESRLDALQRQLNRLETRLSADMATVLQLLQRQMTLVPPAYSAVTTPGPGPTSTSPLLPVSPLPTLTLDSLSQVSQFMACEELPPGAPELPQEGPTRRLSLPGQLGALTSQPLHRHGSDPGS

[7] = target: Glucose-6-phosphate 1-dehydrogenase (Homo sapiens, UniProt P11413); experiment: human G6PD enzyme inhibitors, dose response, selectivity assay for P. falciparum G6PD inhibitor project, biochemical, fluorescence (AID 504792); format: functional
Chain of Glucose-6-phosphate 1-dehydrogenase (P11413 whole entry): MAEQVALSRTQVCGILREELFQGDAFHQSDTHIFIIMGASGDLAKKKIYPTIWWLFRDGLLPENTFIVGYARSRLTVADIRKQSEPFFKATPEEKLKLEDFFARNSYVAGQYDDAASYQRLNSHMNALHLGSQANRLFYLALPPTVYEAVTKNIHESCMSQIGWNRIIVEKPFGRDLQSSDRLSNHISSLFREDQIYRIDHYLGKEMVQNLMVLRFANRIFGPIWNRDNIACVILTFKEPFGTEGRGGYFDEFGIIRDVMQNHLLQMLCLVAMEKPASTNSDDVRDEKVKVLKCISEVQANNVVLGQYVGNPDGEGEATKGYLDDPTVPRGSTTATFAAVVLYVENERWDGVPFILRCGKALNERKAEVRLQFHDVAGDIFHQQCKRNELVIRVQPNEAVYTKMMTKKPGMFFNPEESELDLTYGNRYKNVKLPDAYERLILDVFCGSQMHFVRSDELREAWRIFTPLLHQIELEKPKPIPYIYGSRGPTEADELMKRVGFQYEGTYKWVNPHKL

[8] = target: T3, Mannose-6-phosphate isomerase (Homo sapiens, UniProt P34949); experiment: human PMI inhibitors, high substrate, primary screen, biochemical, fluorescence intensity, high mannose 6-phosphate (AID 1220)
T3 sequence (P34949 whole entry): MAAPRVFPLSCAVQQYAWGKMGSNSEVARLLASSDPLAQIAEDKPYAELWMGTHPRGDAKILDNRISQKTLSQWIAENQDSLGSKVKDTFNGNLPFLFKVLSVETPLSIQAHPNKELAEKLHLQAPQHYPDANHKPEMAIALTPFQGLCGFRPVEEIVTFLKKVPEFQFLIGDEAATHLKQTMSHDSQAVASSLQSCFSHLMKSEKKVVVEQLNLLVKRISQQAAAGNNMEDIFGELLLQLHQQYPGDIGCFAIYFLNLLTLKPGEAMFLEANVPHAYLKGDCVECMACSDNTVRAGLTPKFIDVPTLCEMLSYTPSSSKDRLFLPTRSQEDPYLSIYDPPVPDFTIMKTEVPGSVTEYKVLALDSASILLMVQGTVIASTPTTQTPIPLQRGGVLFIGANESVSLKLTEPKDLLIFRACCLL

Cytochrome P450 2D6 = Cytochrome P450 2D6 (Homo sapiens, UniProt P10635);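 note: CYP2D6 member of a cytochrome P450 panel assay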
Chain of Cytochrome P450 2D6 (P10635 whole entry): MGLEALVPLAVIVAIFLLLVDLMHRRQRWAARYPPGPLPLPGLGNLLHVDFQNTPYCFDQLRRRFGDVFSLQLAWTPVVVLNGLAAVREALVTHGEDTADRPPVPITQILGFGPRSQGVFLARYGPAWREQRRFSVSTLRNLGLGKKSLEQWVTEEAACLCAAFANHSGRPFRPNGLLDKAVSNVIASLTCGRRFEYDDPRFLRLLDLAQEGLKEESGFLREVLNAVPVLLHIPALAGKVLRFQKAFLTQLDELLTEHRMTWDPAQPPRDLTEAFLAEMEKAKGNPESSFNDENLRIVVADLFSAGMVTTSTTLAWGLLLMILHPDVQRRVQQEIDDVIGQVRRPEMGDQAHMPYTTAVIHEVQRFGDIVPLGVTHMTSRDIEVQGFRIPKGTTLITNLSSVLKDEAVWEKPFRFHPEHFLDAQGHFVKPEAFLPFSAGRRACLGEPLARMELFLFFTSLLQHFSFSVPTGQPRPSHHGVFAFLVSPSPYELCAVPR

Cytochrome P450 3A4 = Cytochrome P450 3A4 (Homo sapiens, UniProt P08684);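 note: CYP3A4 tested as one member of a cytochrome P450 panel screen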
Chain of Cytochrome P450 3A4 (P08684 whole entry): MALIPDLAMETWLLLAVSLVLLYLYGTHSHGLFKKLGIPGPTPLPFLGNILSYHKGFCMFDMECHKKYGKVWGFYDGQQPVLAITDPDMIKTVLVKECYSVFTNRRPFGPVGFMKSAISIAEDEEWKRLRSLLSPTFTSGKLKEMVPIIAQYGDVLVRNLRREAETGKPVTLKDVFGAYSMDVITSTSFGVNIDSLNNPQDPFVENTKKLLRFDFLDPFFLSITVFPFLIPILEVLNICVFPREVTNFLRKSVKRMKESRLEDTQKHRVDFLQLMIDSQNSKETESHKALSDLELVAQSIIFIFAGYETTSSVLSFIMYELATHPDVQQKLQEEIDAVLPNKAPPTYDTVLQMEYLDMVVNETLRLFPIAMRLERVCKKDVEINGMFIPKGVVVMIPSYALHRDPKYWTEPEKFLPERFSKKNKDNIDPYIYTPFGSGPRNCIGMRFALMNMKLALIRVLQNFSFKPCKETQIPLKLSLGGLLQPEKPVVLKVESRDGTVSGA

[9] = inhibitors of intracellular T. cruzi replication, confirmation, NIH3T3 host cells, beta-gal luminescence (AID 2044); format: functional, cell-based;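 note: intracellular parasites grown in NIH/3T3 mouse fibroblasts as host cells; luminescent beta-galactosidase reporter signal from transgenic T. cruzi replicating inside host cells; inhibitors lower the luminescence signal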
[10] = cytotoxicity toward NIH3T3 fibroblasts, dose response, counter-screen, cell-based, ATP luminescence, mouse fibroblasts (AID 2010); format: functional;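 note: cells exposed to compound for about 90 hours before reading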
[11] = target: T4, Heat shock factor protein 1 (Mus musculus, UniProt P38532); experiment: HSF1 potentiators in luciferase reporter cells, confirmation, cell-based, NIH3T3, luminescence, dose retest (AID 435004); format: functional;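 note: stress induced by proteasome inhibitor MG132 added 30 min after compound; luciferase reporter driven by HSF1 response element in NIH3T3 cells; actives raise luminescence as potentiators of the MG132 stress response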
T4 sequence (P38532 whole entry): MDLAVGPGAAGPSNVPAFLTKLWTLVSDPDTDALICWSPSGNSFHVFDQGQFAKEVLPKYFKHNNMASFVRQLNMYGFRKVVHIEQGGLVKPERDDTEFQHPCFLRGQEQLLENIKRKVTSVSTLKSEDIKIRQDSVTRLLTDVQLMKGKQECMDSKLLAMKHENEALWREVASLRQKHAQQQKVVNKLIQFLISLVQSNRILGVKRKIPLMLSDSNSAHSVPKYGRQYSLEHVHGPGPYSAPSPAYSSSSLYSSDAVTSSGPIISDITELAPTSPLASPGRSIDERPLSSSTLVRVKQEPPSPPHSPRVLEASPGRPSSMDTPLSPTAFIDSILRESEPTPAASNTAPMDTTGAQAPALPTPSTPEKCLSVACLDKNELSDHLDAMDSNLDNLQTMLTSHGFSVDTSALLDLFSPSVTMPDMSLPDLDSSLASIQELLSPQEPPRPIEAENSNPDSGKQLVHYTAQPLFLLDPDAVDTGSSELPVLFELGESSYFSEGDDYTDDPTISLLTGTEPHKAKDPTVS

[12] = target: T5, Replicative DNA helicase DnaB (Mycobacterium tuberculosis, UniProt P9WMR3); experiment: DnaB intein splicing inhibitors, dose response, biochemical, cell-free fluorescence (AID 449749); format: functional
T5 sequence (P9WMR3 whole entry): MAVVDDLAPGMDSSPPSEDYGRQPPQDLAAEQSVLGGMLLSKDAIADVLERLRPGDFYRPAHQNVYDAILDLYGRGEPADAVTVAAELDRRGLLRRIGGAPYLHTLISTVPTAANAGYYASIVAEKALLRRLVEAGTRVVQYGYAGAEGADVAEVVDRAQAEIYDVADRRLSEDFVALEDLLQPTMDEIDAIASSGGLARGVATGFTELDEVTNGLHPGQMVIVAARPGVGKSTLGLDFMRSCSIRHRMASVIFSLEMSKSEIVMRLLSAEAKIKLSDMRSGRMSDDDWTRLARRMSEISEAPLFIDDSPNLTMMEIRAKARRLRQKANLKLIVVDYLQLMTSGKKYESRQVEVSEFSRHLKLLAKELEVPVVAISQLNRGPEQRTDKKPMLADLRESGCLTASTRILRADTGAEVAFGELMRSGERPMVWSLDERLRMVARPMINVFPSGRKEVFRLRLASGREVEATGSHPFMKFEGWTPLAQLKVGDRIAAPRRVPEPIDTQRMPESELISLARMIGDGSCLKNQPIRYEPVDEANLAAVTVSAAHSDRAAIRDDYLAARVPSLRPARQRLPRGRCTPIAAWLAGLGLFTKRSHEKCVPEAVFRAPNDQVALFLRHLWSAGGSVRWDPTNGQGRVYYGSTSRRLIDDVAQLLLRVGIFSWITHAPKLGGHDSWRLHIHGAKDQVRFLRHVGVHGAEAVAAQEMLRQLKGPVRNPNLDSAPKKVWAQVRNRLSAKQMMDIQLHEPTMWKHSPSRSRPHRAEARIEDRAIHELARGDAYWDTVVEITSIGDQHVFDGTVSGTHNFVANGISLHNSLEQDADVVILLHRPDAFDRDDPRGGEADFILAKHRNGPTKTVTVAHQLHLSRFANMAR

Protein RecA = target: T6, Protein RecA (Mycobacterium tuberculosis, UniProt P9WHJ3); experiment: Fluorescence Cell-Free Homogeneous Dose Retest to Identify Inhibitors of RecA-Intein Splicing Activity. [Related pubchem assays (depositor defined):AID2097, AID2223, AID489010, AID492950]; format: functional
T6 sequence (P9WHJ3 whole entry): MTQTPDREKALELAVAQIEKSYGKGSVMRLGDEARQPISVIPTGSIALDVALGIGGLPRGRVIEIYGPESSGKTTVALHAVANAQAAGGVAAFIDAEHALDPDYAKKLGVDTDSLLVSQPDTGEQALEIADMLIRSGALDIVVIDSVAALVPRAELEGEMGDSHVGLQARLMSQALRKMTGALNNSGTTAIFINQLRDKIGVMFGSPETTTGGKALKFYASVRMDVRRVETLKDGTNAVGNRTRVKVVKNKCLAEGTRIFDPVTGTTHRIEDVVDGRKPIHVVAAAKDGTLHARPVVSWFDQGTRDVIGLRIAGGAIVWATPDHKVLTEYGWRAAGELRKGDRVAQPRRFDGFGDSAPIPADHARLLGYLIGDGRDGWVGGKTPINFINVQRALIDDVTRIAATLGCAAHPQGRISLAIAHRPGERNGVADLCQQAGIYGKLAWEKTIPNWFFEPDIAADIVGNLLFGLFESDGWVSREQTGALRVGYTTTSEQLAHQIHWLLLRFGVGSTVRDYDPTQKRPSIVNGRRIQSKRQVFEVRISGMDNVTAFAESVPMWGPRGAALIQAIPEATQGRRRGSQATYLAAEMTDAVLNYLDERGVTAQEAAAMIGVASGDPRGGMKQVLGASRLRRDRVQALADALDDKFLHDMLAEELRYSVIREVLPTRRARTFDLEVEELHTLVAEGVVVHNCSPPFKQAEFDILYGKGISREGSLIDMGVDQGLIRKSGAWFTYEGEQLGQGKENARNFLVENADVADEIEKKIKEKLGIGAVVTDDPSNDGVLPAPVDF

[13] = target: Beta-2 adrenergic receptor (Homo sapiens, UniProt P07550); experiment: beta2AR agonists driving receptor internalization, dose response, cell-based, FAP fluorogen, flow cytometry, cherry pick 1 (AID 588763); format: functional
Chain of Beta-2 adrenergic receptor (P07550 whole entry, the tested form may be a part): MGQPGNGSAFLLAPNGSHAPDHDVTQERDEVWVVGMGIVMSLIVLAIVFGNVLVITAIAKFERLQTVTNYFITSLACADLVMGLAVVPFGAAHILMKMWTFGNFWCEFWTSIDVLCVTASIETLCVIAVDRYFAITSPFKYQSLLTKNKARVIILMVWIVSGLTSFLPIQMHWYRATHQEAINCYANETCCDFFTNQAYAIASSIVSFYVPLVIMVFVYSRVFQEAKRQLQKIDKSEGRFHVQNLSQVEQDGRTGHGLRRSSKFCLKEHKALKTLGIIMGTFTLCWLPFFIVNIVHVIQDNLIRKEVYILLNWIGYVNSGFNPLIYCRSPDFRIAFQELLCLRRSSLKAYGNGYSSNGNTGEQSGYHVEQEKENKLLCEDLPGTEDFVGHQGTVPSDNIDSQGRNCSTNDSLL

[14] = Fluorescence-based cell-based high throughput dose response assay for inhibitors of the interaction of nucleotide-binding oligomerization domain containing 2 (NOD2) and the receptor-interacting serine-threonine kinase 2 (RIPK2).; format: functional; conditions: Homo sapiens
[15] = A549 cell cytotoxicity, dose response, cytotoxicity control, plate reader, cherry-pick, antagonist series (AID 743412); format: functional, cell-based
[16] = HepG2 cell cytotoxicity, dose response, cytotoxicity control, plate reader, cherry-pick, antagonist series (AID 743416); format: functional, cell-based
[17] = LGR2 antagonists, dose response, cell-based, HEK293, CRE-luciferase reporter, cherry pick, set 2 (AID 743343); format: functional;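 note: transfected cells were stimulated with diluted bursicon conditioned medium after compound addition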
[18] = MC4R antagonists, dose response, counter-screen for LGR2 antagonist project, cell-based, plate reader, cherry pick (AID 743444); format: functional;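 note: transfected HEK 293 cells stimulated with alpha-MSH peptide; potency of inhibitors of the alpha-MSH evoked signal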
[19] = HEK293 cell cytotoxicity, dose response, cytotoxicity control, plate reader, cherry-picked samples (AID 743446); format: functional, cell-based
HEK293 [20] = experiment: cells; conditions: Homo sapiens
HEK293 [21] = experiment: cells; conditions: Homo sapiens; remark: listed apart in the source

Chain of DNA (cytosine-5)-methyltransferase 1 (P26358 whole entry): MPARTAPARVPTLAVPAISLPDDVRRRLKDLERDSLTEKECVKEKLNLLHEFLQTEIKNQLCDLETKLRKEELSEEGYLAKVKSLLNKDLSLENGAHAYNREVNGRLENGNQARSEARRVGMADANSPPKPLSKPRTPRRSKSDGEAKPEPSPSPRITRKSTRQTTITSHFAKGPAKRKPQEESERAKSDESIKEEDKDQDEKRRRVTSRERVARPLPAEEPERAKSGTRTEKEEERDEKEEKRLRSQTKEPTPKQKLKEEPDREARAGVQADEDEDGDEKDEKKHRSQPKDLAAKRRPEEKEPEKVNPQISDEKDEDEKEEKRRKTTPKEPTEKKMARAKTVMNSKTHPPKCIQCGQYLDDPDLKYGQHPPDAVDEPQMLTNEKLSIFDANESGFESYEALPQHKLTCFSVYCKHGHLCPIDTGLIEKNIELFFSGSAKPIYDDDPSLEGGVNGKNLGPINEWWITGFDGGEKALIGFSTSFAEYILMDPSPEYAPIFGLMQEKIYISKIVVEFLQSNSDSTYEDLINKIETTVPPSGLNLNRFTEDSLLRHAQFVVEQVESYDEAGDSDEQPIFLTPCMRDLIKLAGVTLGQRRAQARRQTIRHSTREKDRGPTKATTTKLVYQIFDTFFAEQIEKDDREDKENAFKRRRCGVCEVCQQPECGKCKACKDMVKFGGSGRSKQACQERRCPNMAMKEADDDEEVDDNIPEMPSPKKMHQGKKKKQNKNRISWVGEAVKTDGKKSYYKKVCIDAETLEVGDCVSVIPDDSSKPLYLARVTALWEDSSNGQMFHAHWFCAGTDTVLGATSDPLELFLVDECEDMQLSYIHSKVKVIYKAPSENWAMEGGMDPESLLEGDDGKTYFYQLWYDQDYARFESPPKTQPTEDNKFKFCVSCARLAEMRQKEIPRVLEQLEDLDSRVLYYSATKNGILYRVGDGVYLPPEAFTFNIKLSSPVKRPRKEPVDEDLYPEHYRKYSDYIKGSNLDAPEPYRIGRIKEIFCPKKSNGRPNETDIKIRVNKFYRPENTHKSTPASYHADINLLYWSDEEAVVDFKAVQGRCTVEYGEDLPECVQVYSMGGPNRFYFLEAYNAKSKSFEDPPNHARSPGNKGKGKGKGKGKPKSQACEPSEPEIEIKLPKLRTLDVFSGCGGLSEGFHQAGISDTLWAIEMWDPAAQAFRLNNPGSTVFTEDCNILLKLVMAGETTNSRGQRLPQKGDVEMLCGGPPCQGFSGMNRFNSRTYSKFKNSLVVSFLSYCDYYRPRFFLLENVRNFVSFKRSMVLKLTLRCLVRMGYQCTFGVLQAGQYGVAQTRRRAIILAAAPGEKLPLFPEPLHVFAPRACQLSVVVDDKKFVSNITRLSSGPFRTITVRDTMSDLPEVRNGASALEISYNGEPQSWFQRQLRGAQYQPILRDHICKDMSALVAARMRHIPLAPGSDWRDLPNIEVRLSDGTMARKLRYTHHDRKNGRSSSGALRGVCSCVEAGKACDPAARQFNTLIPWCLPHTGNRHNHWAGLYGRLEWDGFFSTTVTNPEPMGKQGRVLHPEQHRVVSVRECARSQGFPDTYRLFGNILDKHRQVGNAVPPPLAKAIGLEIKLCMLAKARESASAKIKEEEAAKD

NC(CSC(c1ccccc1)(c1ccccc1)c1ccc(-c2ccccc2)cc1)C(=O)O (stereo not drawn)
IC50 [1]: 9.65 µM (active)
IC50 [2]: 11.5 µM (active)
IC50 [3]: 24 µM (active)

O=C(O)c1cc2c(cc1NC(=O)c1ccccc1OC(F)F)OCCCO2
IC50 (Cysteine protease ATG4B): 9.56 µM (active)
IC50 (Phospholipase A2): 6.69 µM (active)

CC(C)(C)CC(=O)Nc1cccc2c1CCCC2
IC50 [1]: > 99 µM (inactive)

Cc1nc(N2CCN(S(=O)(=O)c3ccccc3)CC2)c2cc(-c3ccccc3)sc2n1
AC50 (HeLa): > 350 µM (inactive)

O=C1NC(=O)N(CCc2ccccc2)C(=O)/C1=C(O)/C=C/c1ccccc1
IC50 (Vero [4]): > 25 µM (active)
CC50 (Vero [5]): 13.3 µM (active)

COc1ccc(C2c3c(ncn(CCCN4CCOCC4)c3=N)Oc3ccc4ccccc4c32)cc1OC (stereo not drawn)
IC50 (Vero [4]): 23.8 µM (active)
CC50 (Vero [5]): > 25 µM (active)

CCCN(CCC)CCc1ccc(O)c(O)c1 [DIPROPYLDOPAMINE HYDROBROMIDE]
AC50 [6]: 15.8 µM (inconclusive)

CC(=O)OCC1(C)CN(c2ccccc2)NC1=O (stereo not drawn)
IC50 [7]: 46.7 µM (inactive)

CC(=NNc1nc2ccccc2s1)c1ccncn1
IC50 (Vero [4]): > 25 µM (active)
CC50 (Vero [5]): 5.47 µM (active)

COc1ccc(NS(=O)(=O)c2ccc(N3CCCC3)c(NC(=S)Nc3cccc(C)c3C)c2)cc1
IC50 [8]: > 50 µM (not active)
IC50 [7]: > 80 µM (inactive)

CCn1cnc2c(Nc3cccc(Cl)c3)nc(C#N)nc21
AC50 (HeLa): 50 µM (active)

CCCc1cc(=O)[nH]c(SCc2cc(Cl)ccc2OC(F)F)n1
IC50 (Cysteine protease ATG4B): 9.02 µM (active)
IC50 (Phospholipase A2): 9.01 µM (active)
AC50 (Cytochrome P450 2D6): 20 µM (inconclusive)
AC50 (Cytochrome P450 3A4): 1.12 µM (inconclusive)

CCS(=O)(=O)Nc1cccc(C(=C2CCCCC2)c2c[nH]cn2)c1
AC50 [6]: 14.1 µM (inconclusive)

CS(=O)(=O)c1ccc(C(=O)OCc2nnc(-c3ccccc3)o2)cc1[N+](=O)[O-]
EC50 [9]: 4.95 µM (active)
EC50 [10]: 6.24 µM (active)
EC50 [11]: 8.57 µM (inconclusive)
AC50 [12]: 7.57 µM (active)
EC50 (Protein RecA): 2.66 µM (active)
EC50 [13]: 19 µM (inactive)
IC50 [14]: 3.01 µM (active)
AC50 [15]: 6.14 µM (active)
AC50 [16]: 8.73 µM (active)
AC50 [17]: 13.4 µM (active)
AC50 [18]: 20.2 µM (active)
AC50 [19]: 12.1 µM (active)
EC50 (HEK293 [20]): > 59.6 µM (inactive)
EC50 (HEK293 [21]): > 59.6 µM (inactive)

CCOC(=O)c1sc(-c2ccccc2)cc1NC(=O)Nc1ccccc1
EC50 [9]: 3.49 µM (active)
EC50 [10]: 16.8 µM (active)
IC50 (Cysteine protease ATG4B): 21.9 µM (inactive)
IC50 (Phospholipase A2): 9.28 µM (active)

OCC1(CCOc2ccccc2)CCN(Cc2nc3cc(F)ccc3[nH]2)CC1
IC50 (Vero [4]): 24.6 µM (active)

O=C(Nc1ccccc1O)c1cc2cc(Br)ccc2oc1=O
AC50 (HeLa): 221 µM (active)
